Patent US7524869B2, “Taxanes having a C10 ester substituent” (Florida State University Research Foundation, Inc., priority 2000, dated 2009)

Tested on: HCT116
Assay: In vitro cytotoxicity measured by the cell colony formation assay
Format: cell-based
Conditions: HCT116 cells, 72 h drug incubation, colonies counted after 7 days; ID50 = drug concentration producing 50% inhibition of colony formation; read-out: IN VITRO ID 50 (nm) HCT116

Row | Compound | IC50
1 | CC(=O)O[C@@]12CO[C@@H]1C[C@H](O)[C@@]1(C)C(=O)[C@H](OC(=O)C3CC3)C3=C(C)[C@@H](OC(=O)[C@H](O)[C@@H](NC(=O)OC(C)(C)C)c4ccsc4)C[C@@](O)([C@@H](OC(=O)c4ccccc4)C12)C3(C)C (some centres unmarked) [Compound 2794] | < 1 nM
2 | CC(=O)O[C@@]12CO[C@@H]1C[C@H](O)[C@@]1(C)C(=O)[C@H](OC(=O)C3CC3)C3=C(C)[C@@H](OC(=O)[C@H](O)[C@@H](NC(=O)OC(C)(C)C)c4ccccn4)C[C@@](O)([C@@H](OC(=O)c4ccccc4)C12)C3(C)C (some centres unmarked) [Compound 2802] | < 1 nM
3 | CC(=O)O[C@@]12CO[C@@H]1C[C@H](O)[C@@]1(C)C(=O)[C@H](OC(=O)C3CC3)C3=C(C)[C@@H](OC(=O)[C@H](O)[C@@H](NC(=O)OC(C)(C)C)c4ccncc4)C[C@@](O)([C@@H](OC(=O)c4ccccc4)C12)C3(C)C (some centres unmarked) [Compound 2813] | < 1 nM
4 | CC(=O)O[C@@]12CO[C@@H]1C[C@H](O)[C@@]1(C)C(=O)[C@H](OC(=O)C3CC3)C3=C(C)[C@@H](OC(=O)[C@H](O)[C@@H](NC(=O)c4ccccc4)c4ccoc4)C[C@@](O)([C@@H](OC(=O)c4ccccc4)C12)C3(C)C (some centres unmarked) [Compound 2826] | < 1 nM
5 | CC(=O)O[C@@]12CO[C@@H]1C[C@H](O)[C@@]1(C)C(=O)[C@H](OC(=O)C3CC3)C3=C(C)[C@@H](OC(=O)[C@H](O)[C@@H](NC(=O)c4ccccc4)c4ccsc4)C[C@@](O)([C@@H](OC(=O)c4ccccc4)C12)C3(C)C (some centres unmarked) [Compound 2838] | < 1 nM
6 | CC(=O)O[C@@]12CO[C@@H]1C[C@H](O)[C@@]1(C)C(=O)[C@H](OC(=O)C3CC3)C3=C(C)[C@@H](OC(=O)[C@H](O)[C@@H](NC(=O)c4ccccc4)c4ccccn4)C[C@@](O)([C@@H](OC(=O)c4ccccc4)C12)C3(C)C (some centres unmarked) [Compound 2844] | < 10 nM
7 | CC(=O)O[C@@]12CO[C@@H]1C[C@H](O)[C@@]1(C)C(=O)[C@H](OC(=O)C3CC3)C3=C(C)[C@@H](OC(=O)[C@H](O)[C@@H](NC(=O)c4ccccc4)c4ccncc4)C[C@@](O)([C@@H](OC(=O)c4ccccc4)C12)C3(C)C (some centres unmarked) [Compound 2855] | < 1 nM
8 | CC(=O)O[C@@]12CO[C@@H]1C[C@H](O)[C@@]1(C)C(=O)[C@H](OC(=O)C3CC3)C3=C(C)[C@@H](OC(=O)[C@H](O)[C@@H](NC(=O)c4ccccc4)c4ccc([N+](=O)[O-])cc4)C[C@@](O)([C@@H](OC(=O)c4ccccc4)C12)C3(C)C (some centres unmarked) [Compound 2869] | < 10 nM
9 | CCC(=O)O[C@H]1C(=O)[C@@]2(C)C([C@H](OC(=O)c3ccccc3)[C@]3(O)C[C@H](OC(=O)[C@H](O)[C@@H](NC(=O)c4ccco4)c4cccs4)C(C)=C1C3(C)C)[C@]1(OC(C)=O)CO[C@@H]1C[C@@H]2O (some centres unmarked) [Compound 3053] | < 1 nM
10 | CC(=O)O[C@@]12CO[C@@H]1C[C@H](O)[C@@]1(C)C(=O)[C@H](OC(=O)C3CC3)C3=C(C)[C@@H](OC(=O)[C@H](O)[C@@H](NC(=O)OC(C)C)c4cccs4)C[C@@](O)([C@@H](OC(=O)c4ccccc4)C12)C3(C)C (some centres unmarked) [Compound 3071] | < 1 nM
11 | CC(=O)O[C@@]12CO[C@@H]1C[C@H](O)[C@@]1(C)C(=O)[C@H](OC(=O)C3CC3)C3=C(C)[C@@H](OC(=O)[C@H](O)[C@@H](NC(=O)OCC(C)C)c4ccco4)C[C@@](O)([C@@H](OC(=O)c4ccccc4)C12)C3(C)C (some centres unmarked) [Compound 3102] | < 1 nM
12 | CCCC(=O)O[C@H]1C(=O)[C@@]2(C)C([C@H](OC(=O)c3ccccc3)[C@]3(O)C[C@H](OC(=O)[C@H](O)[C@@H](NC(=O)OCC(C)C)c4ccco4)C(C)=C1C3(C)C)[C@]1(OC(C)=O)CO[C@@H]1C[C@@H]2O (some centres unmarked) [Compound 3110] | < 1 nM
13 | CC(=O)O[C@@]12CO[C@@H]1C[C@H](O)[C@@]1(C)C(=O)[C@H](OC(=O)C3CC3)C3=C(C)[C@@H](OC(=O)[C@H](O)[C@@H](NC(=O)OCC(C)C)c4cccs4)C[C@@](O)([C@@H](OC(=O)c4ccccc4)C12)C3(C)C (some centres unmarked) [Compound 3129] | < 10 nM
14 | CCCC(=O)N[C@@H](c1cccs1)[C@@H](O)C(=O)O[C@H]1C[C@@]2(O)[C@@H](OC(=O)c3ccccc3)C3[C@](C)(C(=O)[C@H](OC(=O)C4CC4)C(=C1C)C2(C)C)[C@@H](O)C[C@H]1OC[C@@]31OC(C)=O (some centres unmarked) [Compound 3132] | < 1 nM
15 | CCCC(=O)N[C@@H](c1cccs1)[C@@H](O)C(=O)O[C@H]1C[C@@]2(O)[C@@H](OC(=O)c3ccccc3)C3[C@](C)(C(=O)[C@H](OC(=O)CCC)C(=C1C)C2(C)C)[C@@H](O)C[C@H]1OC[C@@]31OC(C)=O (some centres unmarked) [Compound 3148] | < 1 nM
16 | CCC(=O)O[C@H]1C(=O)[C@@]2(C)C([C@H](OC(=O)c3ccccc3)[C@]3(O)C[C@H](OC(=O)[C@H](O)[C@@H](NC(=O)OCC(C)C)c4cccs4)C(C)=C1C3(C)C)[C@]1(OC(C)=O)CO[C@@H]1C[C@@H]2O (some centres unmarked) [Compound 3163] | < 1 nM
17 | CCCC(=O)O[C@H]1C(=O)[C@@]2(C)C([C@H](OC(=O)c3ccccc3)[C@]3(O)C[C@H](OC(=O)[C@H](O)[C@@H](NC(=O)c4ccccc4)c4ccco4)C(C)=C1C3(C)C)[C@]1(OC(C)=O)CO[C@@H]1C[C@@H]2O (some centres unmarked) [Compound 3204] | < 1 nM
18 | CCCC(=O)N[C@@H](c1ccco1)[C@@H](O)C(=O)O[C@H]1C[C@@]2(O)[C@@H](OC(=O)c3ccccc3)C3[C@](C)(C(=O)[C@H](OC(=O)CC)C(=C1C)C2(C)C)[C@@H](O)C[C@H]1OC[C@@]31OC(C)=O (some centres unmarked) [Compound 3219] | < 1 nM

Row | Compound | IC50
19 | CCCC(=O)N[C@@H](c1ccco1)[C@@H](O)C(=O)O[C@H]1C[C@@]2(O)[C@@H](OC(=O)c3ccccc3)C3[C@](C)(C(=O)[C@H](OC(=O)CCC)C(=C1C)C2(C)C)[C@@H](O)C[C@H]1OC[C@@]31OC(C)=O (some centres unmarked) [Compound 3222] | < 1 nM
20 | CCCC(=O)O[C@H]1C(=O)[C@@]2(C)C([C@H](OC(=O)c3ccccc3)[C@]3(O)C[C@H](OC(=O)[C@H](O)[C@@H](NC(=O)c4ccccc4)c4cccs4)C(C)=C1C3(C)C)[C@]1(OC(C)=O)CO[C@@H]1C[C@@H]2O (some centres unmarked) [Compound 3258] | < 1 nM
21 | CCCC(=O)O[C@H]1C(=O)[C@@]2(C)C([C@H](OC(=O)c3ccccc3)[C@]3(O)C[C@H](OC(=O)[C@H](O)[C@@H](NC(=O)OCC(C)C)c4cccs4)C(C)=C1C3(C)C)[C@]1(OC(C)=O)CO[C@@H]1C[C@@H]2O (some centres unmarked) [Compound 3265] | < 10 nM
22 | CC(=O)O[C@@]12CO[C@@H]1C[C@H](O)[C@@]1(C)C(=O)[C@H](OC(=O)C3CC3)C3=C(C)[C@@H](OC(=O)[C@H](O)[C@@H](NC(=O)c4ccco4)c4cccs4)C[C@@](O)([C@@H](OC(=O)c4ccccc4)C12)C3(C)C (some centres unmarked) [Compound 3297] | < 1 nM
23 | CCCC(=O)O[C@H]1C(=O)[C@@]2(C)C([C@H](OC(=O)c3ccccc3)[C@]3(O)C[C@H](OC(=O)[C@H](O)[C@@H](NC(=O)c4ccco4)c4cccs4)C(C)=C1C3(C)C)[C@]1(OC(C)=O)CO[C@@H]1C[C@@H]2O (some centres unmarked) [Compound 3352] | < 1 nM
24 | CCC(=O)O[C@H]1C(=O)[C@@]2(C)C([C@H](OC(=O)c3ccccc3)[C@]3(O)C[C@H](OC(=O)[C@H](O)[C@@H](NC(=O)OC(C)C)c4cccs4)C(C)=C1C3(C)C)[C@]1(OC(C)=O)CO[C@@H]1C[C@@H]2O (some centres unmarked) [Compound 3361] | < 1 nM
25 | CCOC(=O)N[C@@H](c1cccs1)[C@@H](O)C(=O)O[C@H]1C[C@@]2(O)[C@@H](OC(=O)c3ccccc3)C3[C@](C)(C(=O)[C@H](OC(=O)CC)C(=C1C)C2(C)C)[C@@H](O)C[C@H]1OC[C@@]31OC(C)=O (some centres unmarked) [Compound 3370] | < 1 nM
26 | CCCC(=O)O[C@H]1C(=O)[C@@]2(C)C([C@H](OC(=O)c3ccccc3)[C@]3(O)C[C@H](OC(=O)[C@H](O)[C@@H](NC(=O)c4cccs4)c4cccs4)C(C)=C1C3(C)C)[C@]1(OC(C)=O)CO[C@@H]1C[C@@H]2O (some centres unmarked) [Compound 3408] | < 1 nM
27 | CCCC(=O)O[C@H]1C(=O)[C@@]2(C)C([C@H](OC(=O)c3ccccc3)[C@]3(O)C[C@H](OC(=O)[C@H](O)[C@@H](NC(=O)OC(C)C)c4ccco4)C(C)=C1C3(C)C)[C@]1(OC(C)=O)CO[C@@H]1C[C@@H]2O (some centres unmarked) [Compound 3417] | < 1 nM
28 | CCC(=O)O[C@H]1C(=O)[C@@]2(C)C([C@H](OC(=O)c3ccccc3)[C@]3(O)C[C@H](OC(=O)[C@H](O)[C@@H](NC(=O)c4cccs4)c4cccs4)C(C)=C1C3(C)C)[C@]1(OC(C)=O)CO[C@@H]1C[C@@H]2O (some centres unmarked) [Compound 3425] | < 1 nM
29 | CC(=O)O[C@@]12CO[C@@H]1C[C@H](O)[C@@]1(C)C(=O)[C@H](OC(=O)C3CC3)C3=C(C)[C@@H](OC(=O)[C@H](O)[C@@H](NC(=O)c4cccs4)c4cccs4)C[C@@](O)([C@@H](OC(=O)c4ccccc4)C12)C3(C)C (some centres unmarked) [Compound 3453] | < 1 nM
30 | CCCC(=O)O[C@H]1C(=O)[C@@]2(C)C([C@H](OC(=O)c3ccccc3)[C@]3(O)C[C@H](OC(=O)[C@H](O)[C@@H](NC(=O)c4ccccc4)C4CC4)C(C)=C1C3(C)C)[C@]1(OC(C)=O)CO[C@@H]1C[C@@H]2O (some centres unmarked) [Compound 3482] | < 1 nM
31 | C/C=C/C(=O)N[C@@H](c1cccs1)[C@@H](O)C(=O)O[C@H]1C[C@@]2(O)[C@@H](OC(=O)c3ccccc3)C3[C@](C)(C(=O)[C@H](OC(=O)CC)C(=C1C)C2(C)C)[C@@H](O)C[C@H]1OC[C@@]31OC(C)=O (some centres unmarked) [Compound 3494] | < 1 nM
32 | C/C=C/C(=O)N[C@@H](c1cccs1)[C@@H](O)C(=O)O[C@H]1C[C@@]2(O)[C@@H](OC(=O)c3ccccc3)C3[C@](C)(C(=O)[C@H](OC(=O)C4CC4)C(=C1C)C2(C)C)[C@@H](O)C[C@H]1OC[C@@]31OC(C)=O (some centres unmarked) [Compound 3513] | < 1 nM
33 | CCC(=O)O[C@H]1C(=O)[C@@]2(C)C([C@H](OC(=O)c3ccccc3)[C@]3(O)C[C@H](OC(=O)[C@H](O)[C@@H](NC(=O)OC(C)C)c4ccco4)C(C)=C1C3(C)C)[C@]1(OC(C)=O)CO[C@@H]1C[C@@H]2O (some centres unmarked) [Compound 3522] | < 1 nM
34 | CCOC(=O)N[C@@H](c1ccco1)[C@@H](O)C(=O)O[C@H]1C[C@@]2(O)[C@@H](OC(=O)c3ccccc3)C3[C@](C)(C(=O)[C@H](OC(=O)CC)C(=C1C)C2(C)C)[C@@H](O)C[C@H]1OC[C@@]31OC(C)=O (some centres unmarked) [Compound 3535] | < 1 nM
35 | C/C=C/C(=O)N[C@@H](c1cccs1)[C@@H](O)C(=O)O[C@H]1C[C@@]2(O)[C@@H](OC(=O)c3ccccc3)C3[C@](C)(C(=O)[C@H](OC(=O)CCC)C(=C1C)C2(C)C)[C@@H](O)C[C@H]1OC[C@@]31OC(C)=O (some centres unmarked) [Compound 3595] | < 1 nM
